The values that follow come from US10752598B2, “Aryldiazepine derivatives as RSV inhibitors” (Enanta Pharmaceuticals, Inc., priority 2017, dated 2020).

Bounds are passed on as bounds.

This test concerns Human RSV-A (“Long” strain). Briefly: RSV-A in vitro cytoprotection (CPE) assay in HEp-2 cells, ATPlite readout. Type of test: cell-based. The following applies: human respiratory syncytial virus, 96 h, 4-day incubation, ATPlite cell viability. An excerpt: RSV is a single stranded negative sense RNA virus that causes respiratory tract infections which can be dangerous to infants, the elderly, and immunosuppressed individuals. Currently there is no vaccine, and therapeutic options are both costly and of limited effectiveness. These approved treatments are Ribavirin, and Palivizumab/Synagis (a monoclonal antibody). RSV has two genotypes, A and B, which differ primarily in the structure of the virus' surface “G” attachment protein. Our current primary screen focusses on RSV-A and uses an in vitro cytoprotection assay where compounds are added in 2-fold dilutions to cells which are then subjected to fully replicative viral particles. Cell viability is measured several days later along with separate measurements of compound cytotoxicity. This report focuses on the results of our most recent screening of compounds.
HEp-2 cells, (originally derived from tumors grown in irradiated-cortisonised weanling rats that had been injected with epidermoid carcinoma tissue from a person's larynx, but later found to be indistinguishable from HeLa cells by PCR DNA analysis), were used for the culturing of genotype A, “Long” strain RSV. Flasks were inoculated with RSV and viral stocks were collected once cytopathic effect (CPE) was greater than 90%. Viral stocks in 25% sucrose media were snap frozen using liquid nitrogen to increase viral stability. Viral stock titers were quantified by tissue culture infectious dose 50% (TCID50) using 8,000 cells per well and 3-fold viral dilutions across a 96-well plate, cultured for 4 days.
Following extensive parameter testing, the final assay is run as follows: HEp-2 cells are seeded into the inner 60 wells of a 96-well plate at 8,000 cells per well in a volume of […] Growth Media (DMEM without phenol red, 1% L-Glut, 1% Penn/Strep, 1% nonessential amino acids, 10% FBS). 2-fold serial dilutions of control and test compounds are added to the wells in duplicate in a total volume of 25 μL. Viral stock is then added to the wells in a volume of 25 μL, bringing the total volume of each well to 100 μL. Each 96-well plate has a control column of 6 wells with cells and virus but no compound (negative control, max CPE), a column with cells but no compound or virus (positive control, minimum CPE), and a column with no cells or virus or compound (background plate/reagent control). The control wells with cells but no virus are given an additional 25 uL of growth media containing an equal quantity of sucrose as those wells receiving the viral stock in order to keep consistent in media and volume conditions. The outer wells of the plate are filled with 125 μL of growth media to act as a thermal and evaporative moat around the test wells. Following a 4-day incubation period, the plates are read using ATPlite (50 uL added per well), which quantifies the amount of ATP (a measure of cell health) present in each well. Assay plates are read using the Envision luminometer. […] EC50 ranges are as follows: A<2 μM; B 2-5 μM; C>5 μM.
For orientation: Cellular ATP, detected with luciferase, serves as a proxy for viable cell number.

The EC50 is the concentration that produces a half-maximal response. A higher EC50 goes with a less potent agent. `O=C(Nc1ccccc1)NC1C(=O)Nc2ccccc2N(c2ccccc2)C1=O` (centres unmarked) [Example 20] showed an EC50 above 5 µM.

The compound `O=C1Nc2ccccc2N(c2ccccc2)C[C@@H]1Nc1nnc(-c2ncc(C(F)(F)F)cc2N2CCOCC2)o1` [Example 5, (S)-3-((5-(3-morpholino-5-(trifluoromethyl)pyridin-2-yl)-1,3,4-oxadiazol-2-yl)amino)-5-phenyl-1,3,4,5-tetrahydro-2H-benzo[b][1,4]diazepin-2-one] gave an EC50 below 2 µM.

For the compound `O=C1Nc2ccccc2N(c2ccccc2)C(=O)C1Nc1nnc(-c2ccccc2)o1` (centres unmarked) [Example 19], the EC50 is above 5 µM. Turning to `O=C(NC1C(=O)Nc2ccccc2N(c2ccccc2)C1=O)c1ccccc1` (centres unmarked) [Example 21], the EC50 was above 5 µM.

For the compound `COCCNc1cc(C(F)(F)F)cnc1-c1nnc(N[C@H]2CN(c3ccccc3)c3ccccc3NC2=O)o1` [Example 8], the EC50 was above 5 µM. `O=C1Nc2ccccc2N(c2ccccc2)C[C@@H]1Nc1nnc(-c2ccc(F)cc2)o1` [Example 11]: the EC50 was above 5 µM. Then `O=C(N[C@H]1CN(c2ccccc2)c2ccccc2NC1=O)c1ccccc1` [Example 4, (S)—N-(4-oxo-1-phenyl-2,3,4,5-tetrahydro-1H-benzo[b][1,4]diazepin-3-yl)benzamide], with above 5 µM; and `O=C1Nc2ccccc2N(c2ccccc2)C[C@@H]1Nc1nnc(-c2cn(-c3ccccn3)nc2N2CCOCC2)o1` [Example 13], with 2 to 5 µM; and `O=C1Nc2ccccc2N(c2ccccc2)C[C@@H]1Nc1nnc(-c2ccccc2)o1` [Example 1, (S)-5-phenyl-3-((5-phenyl-1,3,4-oxadiazol-2-yl)amino)-1,3,4,5-tetrahydro-2H-benzo[b][1,4]diazepin-2-one], with above 5 µM. As to `O=C1Nc2ccccc2N(c2ccccc2)C[C@@H]1Nc1nnc(-c2cn(C3CCCC3)nc2N2CCOCC2)o1` [Example 10], the concentration for a half-maximal effect (EC50) was below 2 µM.

Turning to `O=C1Nc2ccccc2N(c2ccccc2)C[C@@H]1Nc1nnc(-c2nc(C3CC3)sc2N2CCOCC2)o1` [Example 15], the EC50 is below 2 µM. Take `O=C1Nc2ccccc2N(c2ccccc2)C[C@@H]1Nc1nnc(-c2nc(-c3cccnc3)sc2N2CCOCC2)o1` [Example 16]: the half-maximal effective concentration (EC50) was below 2 µM. Next, `O=C1Nc2ccccc2N(c2ccccc2)C[C@@H]1Nc1nnc(-c2cccnc2N2CCOCC2)o1` [Example 6]: 2 to 5 µM; `Cc1ccc(-c2nnc(N[C@H]3CN(c4ccccc4)c4ccccc4NC3=O)o2)o1` [Example 9]: above 5 µM; `O=C1Nc2ccccc2N(c2ccccc2)C[C@@H]1Nc1nnc(-c2nc(C(F)(F)F)sc2N2CCOCC2)o1` [Example 14, (S)-3-((5-(5-morpholino-2-(trifluoromethyl)thiazol-4-yl)-1,3,4-oxadiazol-2-yl)amino)-5-phenyl-1,3,4,5-tetrahydro-2H-benzo[b][1,4]diazepin-2-one]: below 2 µM. Consider `O=C1Nc2ccccc2N(c2ccccc2)C[C@@H]1Nc1nc2ccccc2o1` [Example 2, (S)-3-(benzo[d]oxazol-2-ylamino)-5-phenyl-1,3,4,5-tetrahydro-2H-benzo[b][1,4]diazepin-2-one], for which the EC50 is above 5 µM.

With `O=C1Nc2ccccc2N(c2cc(F)c(F)c(F)c2)C[C@@H]1Nc1nnc(-c2ncc(C(F)(F)F)cc2N2CCOCC2)o1` [Example 17], the EC50 is above 5 µM. Then `O=C1Nc2ccccc2N(c2ccccc2)C[C@@H]1Nc1nnc(-c2ncc(C3CC3)cc2N2CCOCC2)o1` [Example 7], with below 2 µM; and `O=C(Nc1ccccc1)N[C@H]1CN(c2ccccc2)c2ccccc2NC1=O` [Example 3], with above 5 µM; and `O=C1Nc2ccccc2N(c2ccccc2)C[C@@H]1Nc1nnc(-c2ccc(N3CCOCC3)cc2F)o1` [Example 12], with above 5 µM.
